Like-named read-outs stand apart in the source and are kept apart here.
Assays:
[1] = molecular target: T1, vanilloid receptor 1 (VR1/TRPV1) of the rat species (Rattus norvegicus, UniProt O35433); experiment: FLIPR Ca2+ influx assay on rat dorsal root ganglia cells (pharmacological method I); type: cell-based; conditions: table 4, capsaicin
T1 construct: The spinal column is removed from decapitated rats; from tissue; host or cells: primary cells dissociated from rat dorsal root ganglia
Outline: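 Primary rat dorsal root ganglion cells loaded with 2 μM Fluo-4, Ca2+ influx read on FLIPR as peak fluorescence. Triplicates, at least 3 independent experiments.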

vanilloid receptor (VR1) = molecular target: T2, vanilloid receptor (VR1) (Homo sapiens, UniProt Q8NER1); experiment: FLIPR Ca2+ influx assay on CHO K1 cells transfected with the VR1 gene (pharmacological method II); type: cell-based; conditions: table 4; capsaicin; read-out: Ki (human) Cap.
T2 construct: expressed in transfected cells; host or cells: CHO K1 cells (ECACC), stably transfected
T2 sequence (Q8NER1 whole entry): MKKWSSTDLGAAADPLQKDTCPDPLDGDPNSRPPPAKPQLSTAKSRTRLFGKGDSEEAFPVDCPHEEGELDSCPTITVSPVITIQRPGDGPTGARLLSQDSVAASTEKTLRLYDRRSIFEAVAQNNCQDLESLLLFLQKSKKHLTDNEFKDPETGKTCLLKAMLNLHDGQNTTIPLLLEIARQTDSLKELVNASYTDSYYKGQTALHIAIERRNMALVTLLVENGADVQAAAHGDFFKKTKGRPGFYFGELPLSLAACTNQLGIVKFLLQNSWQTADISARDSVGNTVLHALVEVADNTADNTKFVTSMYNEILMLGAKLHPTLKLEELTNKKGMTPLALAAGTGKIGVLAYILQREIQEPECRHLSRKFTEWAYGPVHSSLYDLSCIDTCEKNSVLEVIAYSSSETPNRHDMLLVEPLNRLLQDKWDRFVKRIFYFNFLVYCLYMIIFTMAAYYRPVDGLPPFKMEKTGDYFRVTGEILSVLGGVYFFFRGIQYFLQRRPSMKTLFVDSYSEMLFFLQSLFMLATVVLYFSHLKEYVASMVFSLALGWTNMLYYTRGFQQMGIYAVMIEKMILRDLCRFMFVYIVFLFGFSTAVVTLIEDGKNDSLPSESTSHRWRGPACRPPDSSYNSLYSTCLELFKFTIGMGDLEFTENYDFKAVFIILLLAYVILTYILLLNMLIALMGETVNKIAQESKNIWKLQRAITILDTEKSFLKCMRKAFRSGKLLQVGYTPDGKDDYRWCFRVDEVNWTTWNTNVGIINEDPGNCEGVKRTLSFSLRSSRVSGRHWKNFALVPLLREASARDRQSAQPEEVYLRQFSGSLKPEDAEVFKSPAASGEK

VR1/TRPV1 receptor = VR1/TRPV1 receptor (Homo sapiens, UniProt Q8NER1); experiment: IC50 (human) after pH stimulus; type: cell-based; conditions: table 4
VR1/TRPV1 receptor, sequence (Q8NER1 whole entry): as above

[2] = test system: cold allodynia after chronic constriction injury; experiment: Neuropathic pain in mice, Bennet model (chronic constriction injury, cold allodynia); type: in vivo; conditions: mouse
Text: VI. Neuropathic Pain in Mice
The efficacy of compounds of general formula I in the treatment of neuropathic pain is investigated by using the Bennet modell (chronic constriction injury; Bennett and Xie, 1988, Pain 33: 87-107.
NMRI mice (weight 16 to 18 g) under ketavet-rompun anaesthesia are supplied with three loose ligatures of the right nervus ischiaticus. The animals develop an oversensitivity to cold at the position of the pad that is innervated by the injured nerve which—after a recovery period of one week—is quantified over a period of three weeks by using a metal plate that is cooled to 4° C. (cold allodynia). The animals are observed for a period of 2 minutes on this plate and the number of brisk withdrawal reactions of the injured nerve is counted. […] The group size is n=10, the stastical significance of efficacy against allodynia (*=p<0.05) is determined by analysis of variance with repeated measurements and post hoc analysis with Bonferroni adjustment.

T1 sequence (O35433 whole entry): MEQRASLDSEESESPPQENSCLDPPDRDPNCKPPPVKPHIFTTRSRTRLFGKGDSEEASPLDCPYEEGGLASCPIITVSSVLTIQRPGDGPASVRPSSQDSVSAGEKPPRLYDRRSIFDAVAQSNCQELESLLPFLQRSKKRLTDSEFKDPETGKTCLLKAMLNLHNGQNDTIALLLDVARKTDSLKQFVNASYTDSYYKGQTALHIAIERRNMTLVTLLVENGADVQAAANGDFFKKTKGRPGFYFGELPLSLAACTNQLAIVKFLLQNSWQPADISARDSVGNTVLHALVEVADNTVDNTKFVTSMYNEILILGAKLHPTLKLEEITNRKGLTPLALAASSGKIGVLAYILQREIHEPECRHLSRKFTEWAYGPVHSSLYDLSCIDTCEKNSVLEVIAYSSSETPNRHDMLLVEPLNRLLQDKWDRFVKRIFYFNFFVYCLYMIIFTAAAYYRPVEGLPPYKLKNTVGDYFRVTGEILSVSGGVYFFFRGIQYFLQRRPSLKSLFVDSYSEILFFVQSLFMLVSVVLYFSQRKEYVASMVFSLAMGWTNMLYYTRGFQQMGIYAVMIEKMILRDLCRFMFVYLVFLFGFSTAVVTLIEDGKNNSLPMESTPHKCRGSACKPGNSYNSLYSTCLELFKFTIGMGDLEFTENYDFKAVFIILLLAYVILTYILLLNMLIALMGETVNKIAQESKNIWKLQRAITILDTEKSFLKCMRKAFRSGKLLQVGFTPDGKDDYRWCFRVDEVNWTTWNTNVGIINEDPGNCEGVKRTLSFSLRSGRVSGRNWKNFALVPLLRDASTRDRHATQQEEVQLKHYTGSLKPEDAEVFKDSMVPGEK

Row | Ki ([1]; Ki (rat) Cap.) [nM] | Ki (vanilloid receptor (VR1)) [nM] | IC50 (VR1/TRPV1 receptor) [nM] | Ki ([1]; read-out: Ki (rat) Cap.) [nM] | Structure (SMILES) | inhibition Bennet model (n = 10) ([2]; 0.01 mg/kg body weight po) | inhibition Bennet model (n = 10) ([2]; 0.001 mg/kg body weight po) [po 26%]
1 | 1 | 0.9 | 23.8 | – | CC(C(=O)NCc1ccc(C(F)(F)F)nc1OCCC(C)(C)C)c1ccc(NS(C)(=O)=O)c(F)c1 (stereo not drawn) [Example 125] | 0.01 po 17% | –
2 | – | 14 | 140 | 8.3 | Cc1ccc(Cl)cc1Nc1nc(C(F)(F)F)ccc1CNC(=O)C(C)c1ccc(NS(C)(=O)=O)c(F)c1 (stereo not drawn) [Example 136, N-[2-(5-chloro-2-methyl-phenylamino)-6-trifluoromethyl-pyridin-3-ylmethyl]-2-(3-fluoro-4-methylsulfonamido-phenyl)-propionamide] | 0.01 po 13% | –
3 | – | 1.5 | 85.3 | 1 | CC(C(=O)NCc1ccc(C(C)(C)C)nc1OC1CCCC1)c1ccc(NS(C)(=O)=O)c(F)c1 (stereo not drawn) [Example 234, N-(6-tert-butyl-2-cyclopentyloxy-pyridin-3-ylmethyl)-2-(3-fluoro-4-methylsulfonamido-phenyl)-propionamide] | – | 0.001

Reference: patent US8710233B2 (Gruenenthal GmbH, priority 2005, dated 2014)
